± gives the expanded uncertainty stated by the source.
Test: molar heat capacity at constant pressure
Settings: 101.33 kPa

CCCO [propan-1-ol]
Settings | molar heat capacity at constant pressure [J/K/mol]
5.01 K, Crystal | 0.17 ± 0.02
5.41 K, Crystal | 0.22 ± 0.02
6.14 K, Crystal | 0.29 ± 0.03
6.36 K, Crystal | 0.35 ± 0.03
7.33 K, Crystal | 0.52 ± 0.03
7.72 K, Crystal | 0.61 ± 0.03
8.72 K, Crystal | 0.9 ± 0.04
8.94 K, Crystal | 0.94 ± 0.04
10.13 K, Crystal | 1.44 ± 0.04
10.33 K, Crystal | 1.49 ± 0.04
11.74 K, Crystal | 2.19 ± 0.05
11.83 K, Crystal | 2.23 ± 0.05
13.48 K, Crystal | 3.15 ± 0.07
13.5 K, Crystal | 3.19 ± 0.07
15.36 K, Crystal | 4.38 ± 0.08
15.38 K, Crystal | 4.4 ± 0.08
17.37 K, Crystal | 5.81 ± 0.09
17.42 K, Crystal | 5.83 ± 0.09
19.52 K, Crystal | 7.46 ± 0.11
19.6 K, Crystal | 7.53 ± 0.11
21.78 K, Crystal | 9.32 ± 0.12
21.9 K, Crystal | 9.44 ± 0.12
24.15 K, Crystal | 11.43 ± 0.13
24.29 K, Crystal | 11.57 ± 0.13
26.63 K, Crystal | 13.58 ± 0.13
26.79 K, Crystal | 13.71 ± 0.13
29.24 K, Crystal | 15.59 ± 0.13
29.43 K, Crystal | 15.75 ± 0.13
32.1 K, Crystal | 18.09 ± 0.15
34.44 K, Crystal | 20.16 ± 0.16
36.72 K, Crystal | 21.88 ± 0.17
39.11 K, Crystal | 23.5 ± 0.17
41.56 K, Crystal | 25.36 ± 0.18
44.03 K, Crystal | 27.19 ± 0.19
46.52 K, Crystal | 28.98 ± 0.2
49.05 K, Crystal | 30.75 ± 0.2
51.61 K, Crystal | 32.44 ± 0.21
54.2 K, Crystal | 34.01 ± 0.22
56.81 K, Crystal | 35.59 ± 0.22
59.46 K, Crystal | 37.12 ± 0.23
62.13 K, Crystal | 38.64 ± 0.23
64.82 K, Crystal | 40.12 ± 0.24
67.54 K, Crystal | 41.54 ± 0.25
70.28 K, Crystal | 42.95 ± 0.25
73.03 K, Crystal | 44.31 ± 0.26
75.8 K, Crystal | 45.65 ± 0.26
78.58 K, Crystal | 46.95 ± 0.27
81.38 K, Crystal | 48.22 ± 0.27
84.17 K, Crystal | 49.46 ± 0.28
86.9 K, Crystal | 50.65 ± 0.28
89.55 K, Crystal | 51.79 ± 0.29
92.15 K, Crystal | 52.87 ± 0.51
94.68 K, Crystal | 53.91 ± 0.51
97.15 K, Crystal | 54.9 ± 0.51
98.26 K, Crystal | 55.24 ± 0.51
99.58 K, Crystal | 55.88 ± 0.51
101.41 K, Crystal | 56.44 ± 0.51
104.32 K, Crystal | 57.81 ± 0.52
107.19 K, Crystal | 59.01 ± 0.52
110.07 K, Crystal | 60.14 ± 0.52
112.95 K, Crystal | 61.2 ± 0.52
115.84 K, Crystal | 62.28 ± 0.52
118.73 K, Crystal | 63.39 ± 0.53
121.63 K, Crystal | 64.43 ± 0.53
124.53 K, Crystal | 65.69 ± 0.53
127.43 K, Crystal | 66.87 ± 0.53
130.34 K, Crystal | 68.07 ± 0.54
133.25 K, Crystal | 69.29 ± 0.54
136.16 K, Crystal | 70.53 ± 0.54
139.06 K, Crystal | 71.9 ± 0.54
141.97 K, Crystal | 73.6 ± 0.55
144.84 K, Crystal | 79.58 ± 0.56
153 K, Liquid | 106.26 ± 0.61
155.75 K, Liquid | 106.33 ± 0.61
158.49 K, Liquid | 106.55 ± 0.61
161.22 K, Liquid | 106.79 ± 0.61
163.93 K, Liquid | 107.01 ± 0.61
166.64 K, Liquid | 107.32 ± 0.61
169.34 K, Liquid | 107.61 ± 0.62
172.03 K, Liquid | 107.88 ± 0.62
174.71 K, Liquid | 108.22 ± 0.62
177.37 K, Liquid | 108.49 ± 0.62
180.03 K, Liquid | 108.81 ± 0.62
182.68 K, Liquid | 109.05 ± 0.62
185.32 K, Liquid | 109.37 ± 0.62
187.95 K, Liquid | 109.64 ± 0.62
190.57 K, Liquid | 109.94 ± 0.62
193.19 K, Liquid | 110.41 ± 0.62
195.79 K, Liquid | 110.64 ± 0.62
198.38 K, Liquid | 110.93 ± 0.62
200.97 K, Liquid | 111.4 ± 0.62
203.35 K, Liquid | 111.76 ± 0.62
205.56 K, Liquid | 112.13 ± 0.62
208.15 K, Liquid | 112.54 ± 0.63
211.11 K, Liquid | 113.05 ± 0.63
214.08 K, Liquid | 113.58 ± 0.63
217.04 K, Liquid | 114.16 ± 0.63
219.99 K, Liquid | 114.78 ± 0.63
222.92 K, Liquid | 115.39 ± 0.63
225.84 K, Liquid | 116.05 ± 0.63
228.74 K, Liquid | 116.74 ± 0.63
231.64 K, Liquid | 117.43 ± 0.63
234.52 K, Liquid | 118.2 ± 0.64
237.38 K, Liquid | 118.92 ± 0.64
240.23 K, Liquid | 119.7 ± 0.64
243.07 K, Liquid | 120.56 ± 0.64
245.89 K, Liquid | 121.39 ± 0.64
248.7 K, Liquid | 122.27 ± 0.64
251.5 K, Liquid | 123.2 ± 0.65
254.28 K, Liquid | 123.87 ± 0.65
257.05 K, Liquid | 124.8 ± 0.65
259.81 K, Liquid | 125.83 ± 0.65
262.55 K, Liquid | 126.88 ± 0.65
265.28 K, Liquid | 127.98 ± 0.66
267.99 K, Liquid | 129.08 ± 0.66
270.68 K, Liquid | 130.22 ± 0.66
273.36 K, Liquid | 131.39 ± 0.66
276.02 K, Liquid | 132.62 ± 0.67
278.67 K, Liquid | 133.86 ± 0.67
281.3 K, Liquid | 135.13 ± 0.67
283.91 K, Liquid | 136.42 ± 0.67
286.51 K, Liquid | 137.76 ± 0.68
289.09 K, Liquid | 139.17 ± 0.68
291.66 K, Liquid | 140.59 ± 0.68
294.2 K, Liquid | 141.98 ± 0.68
296.74 K, Liquid | 143.51 ± 0.69
299.25 K, Liquid | 144.96 ± 0.69
301.34 K, Liquid | 146.08 ± 0.69
303.15 K, Liquid | 147.29 ± 0.69
305.04 K, Liquid | 148.45 ± 0.7
306.99 K, Liquid | 149.78 ± 0.7
308.94 K, Liquid | 151.07 ± 0.7
310.9 K, Liquid | 152.24 ± 0.7
312.85 K, Liquid | 153.55 ± 0.71
314.81 K, Liquid | 155.12 ± 0.71
316.76 K, Liquid | 156.37 ± 0.71
318.71 K, Liquid | 157.72 ± 0.72
320.67 K, Liquid | 159.16 ± 0.72
322.62 K, Liquid | 160.63 ± 0.72
324.58 K, Liquid | 162.08 ± 0.72
326.53 K, Liquid | 163.47 ± 0.73
328.49 K, Liquid | 165.03 ± 0.73
330.44 K, Liquid | 166.52 ± 0.73
332.4 K, Liquid | 168.01 ± 0.74
334.35 K, Liquid | 169.52 ± 0.74
336.31 K, Liquid | 171.04 ± 0.74
338.26 K, Liquid | 172.66 ± 0.75
340.22 K, Liquid | 174.2 ± 0.75
342.17 K, Liquid | 175.61 ± 0.75
344.13 K, Liquid | 177.2 ± 0.75
346.1 K, Liquid | 178.27 ± 0.76
348.07 K, Liquid | 180.29 ± 0.76
350.04 K, Liquid | 181.83 ± 0.76

Source: the NIST ThermoML archive (doi:10.1021/je0499768)
